PubChem BioAssay (NCI)
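These data come from cells grown in 96-well plates and exposed to compound for 48 hours at five concentrations. GI50 is the concentration that inhibits growth by half. Definition used: TGI = concentration required for complete inhibition of growth.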

How the values were obtained:
Test in all cases: NCI anticancer screen, dose series, 48 h
BT-549 breast = system: BT-549 breast
786-0 renal = system: 786-0 renal
NCI-H226 lung = system: NCI-H226 lung
SF-539 CNS = system: SF-539 CNS
IGROV1 ovarian = system: IGROV1 ovarian
SF-295 CNS = system: SF-295 CNS
RXF 393 renal = system: RXF 393 renal
OVCAR-5 ovarian = system: OVCAR-5 ovarian
SNB-75 CNS = system: SNB-75 CNS
OVCAR-3 ovarian = system: OVCAR-3 ovarian

SMILES | GI50 (BT-549 breast) | TGI (BT-549 breast) | GI50 (786-0 renal) | TGI (786-0 renal) | GI50 (NCI-H226 lung) | TGI (NCI-H226 lung) | GI50 (SF-539 CNS) | TGI (SF-539 CNS) | GI50 (IGROV1 ovarian) | TGI (IGROV1 ovarian) | GI50 (SF-295 CNS) | TGI (SF-295 CNS) | GI50 (RXF 393 renal) | TGI (RXF 393 renal) | GI50 (OVCAR-5 ovarian) | TGI (OVCAR-5 ovarian) | GI50 (SNB-75 CNS) | TGI (SNB-75 CNS) | GI50 (OVCAR-3 ovarian) | TGI (OVCAR-3 ovarian)
COc1ccc2c(c1)OC13Oc4cc(OC)ccc4C=C1CCCC3=C2 | > 100 µM | > 100 µM | > 100 µM | > 100 µM | > 100 µM | > 100 µM | > 100 µM | > 100 µM | > 100 µM | > 100 µM | > 100 µM | > 100 µM | > 100 µM | > 100 µM | > 100 µM | > 100 µM |  |  |  | 
O=C(NNS(=O)(=O)c1cc(C(F)(F)F)cc(C(F)(F)F)c1)c1cnn(-c2ccc(Cl)cc2)c1C(F)(F)F | 14.5 µM | 28 µM | 18.1 µM | 42.2 µM | 20.7 µM | 54.3 µM | 18.4 µM | 33.5 µM | 17.4 µM | 38.5 µM | 14.9 µM | 44 µM |  |  | 17.8 µM | 33.5 µM | 24.4 µM | 75.3 µM | 15.3 µM | 33.4 µM
CN(O)C(=O)Cc1ccccc1 |  |  |  | > 100 µM |  | > 100 µM |  | > 100 µM |  | > 100 µM |  | > 100 µM |  | > 100 µM |  | > 100 µM |  | > 100 µM |  | > 100 µM
c1ccc(-c2nc(N3CCNCC3)c3nc(-c4ccccc4)oc3n2)cc1 | 1.67 µM | 3.24 µM | 1.63 µM | 3.46 µM |  |  | 1.72 µM | 3.13 µM | 1.65 µM | 3.14 µM | 1.86 µM | 3.38 µM | 1.83 µM | 3.48 µM | 1.7 µM | 3.15 µM | 1.26 µM | 2.52 µM | 1.78 µM | 3.25 µM
O=C(/C=C/c1cccc(Cl)c1)c1ccc(Cl)cc1Cl | 8.94 µM | 20.7 µM | 12.9 µM | 27.6 µM |  |  | 12.6 µM | 28 µM | 7.56 µM | > 50 µM | 10.1 µM | 22.4 µM |  |  | 12.2 µM | 27.2 µM | 9.5 µM | 30.1 µM | 8.54 µM | 17.3 µM
COc1ccccc1/C=C\c1cc(OC)c(OC)c(OC)c1 |  |  |  | > 100 µM |  | 96.2 µM |  | 46.4 µM |  | > 100 µM |  | > 100 µM |  | 36.6 µM |  | 89.4 µM |  | 72.6 µM |  | 55.6 µM
Cn1c(O)c(C(=O)Nc2ccc([N+](=O)[O-])cc2)c(=O)n(C)c1=S |  |  |  | 8.81 µM |  | 9.85 µM |  | 4.2 µM |  | 10.1 µM |  | 4.86 µM |  | 2.8 µM |  | 16.4 µM |  | 6.37 µM |  | 8.02 µM
CCNCC(O)c1ccc(N)c([N+](=O)[O-])c1 (configuration not stated) |  | > 100 µM |  | > 100 µM |  | > 100 µM |  | > 100 µM |  | > 100 µM |  | > 100 µM |  |  |  | > 100 µM |  | > 100 µM |  | > 100 µM
COC(=O)C1(Cc2cccc(Cl)c2)CCCCCCN1C(=O)c1ccccc1 (configuration not stated) |  | 40.8 µM |  | 26.3 µM |  | 48.8 µM |  |  |  | 45.5 µM |  | 22.1 µM |  |  |  | 44.7 µM |  | 29.6 µM |  | 20.4 µM
CC(=O)OC1CCC2(C)C(=CC(C3C=C4CC(OC(C)=O)CCC4(C)C4=C3C3CC5OC6(CCC(C)CO6)C(C)C5C3(C)CC4)C3=C2CCC2(C)C3CC3OC4(CCC(C)CO4)C(C)C32)C1 (configuration not stated) |  | 29.7 µM |  | 29.6 µM |  | 41.5 µM |  |  |  | 23.6 µM |  | 26.5 µM |  | 31.5 µM |  | 35.9 µM |  | 29.9 µM |  | 28.6 µM
COc1cc(C2C(C(=O)Nc3ccccc3)=C(C)NC(C)=C2C(=O)Nc2ccccc2)ccc1O |  |  |  | > 100 µM |  | > 100 µM |  | 52.9 µM |  | > 100 µM |  | > 100 µM |  | > 100 µM |  | > 100 µM |  | > 100 µM |  | 55.9 µM
COc1ccc(/C=C\c2cc(OC)c(OC)c(OC)c2)c(NS(=O)(=O)c2ccc(C)cc2)c1O | 0.035 µM | 3.04 µM | 0.129 µM | 30.2 µM |  |  | 0.0237 µM | 0.0641 µM | 0.075 µM | > 100 µM | 0.0509 µM |  |  |  | 0.15 µM | > 100 µM | 0.0304 µM | > 100 µM | 0.03 µM | 1.65 µM
C=C(C)[C@H]1CC/C(C)=C/CCC(C)C(=O)CC/C(CO)=C\[C@@H]1O (some centres not stated) | 88.1 µM | > 100 µM | > 100 µM | > 100 µM | > 100 µM | > 100 µM | > 100 µM | > 100 µM | > 100 µM | > 100 µM | 70 µM | > 100 µM | > 100 µM | > 100 µM | > 100 µM | > 100 µM |  |  | > 100 µM | > 100 µM
CCC1(CN(C)C)CC/C(=C\c2ccc3c(c2)OCO3)C1=O (configuration not stated) |  |  |  | > 100 µM |  | > 100 µM |  | > 100 µM |  | > 100 µM |  | > 100 µM |  | > 100 µM |  | > 100 µM |  | > 100 µM |  | > 100 µM
COc1ccc(C(=O)C=C2NCCN2)cc1 |  |  |  | > 100 µM |  | > 100 µM |  | > 100 µM |  | > 100 µM |  | > 100 µM |  | > 100 µM |  | > 100 µM |  | > 100 µM |  | > 100 µM
CC[C@H](C)[C@H](NC(=O)C12C3C4C1C1C2C3C41NC(C)=O)C(=O)N(C)[C@H](C[C@@H](OC(C)=O)c1nc(C(=O)N[C@@H](Cc2ccccc2)C[C@H](C)C(=O)OC)cs1)C(C)C (some centres not stated) | 0.146 µM | 3.84 µM | 0.902 µM | > 14.3 µM | > 9.71 µM | > 14.3 µM | 0.349 µM | 1.01 µM | 0.593 µM | > 14.3 µM | 0.494 µM | > 14.3 µM |  |  | 3.97 µM | > 14.3 µM | 0.109 µM | > 14.3 µM | 0.0565 µM | 1.08 µM
CCC1(OC(C)=O)C(=O)OCc2c1cc1n(c2=O)Cc2cc3ccccc3nc2-1 (configuration not stated) |  |  |  | > 31.1 µM |  | 4.55 µM |  | 5.23 µM |  | > 100 µM |  | > 100 µM |  | > 22.6 µM |  | 28.9 µM |  | > 44.6 µM |  | > 100 µM
O=C1c2cc(CCl)sc2C(=O)c2ccsc21 |  |  |  | 2.88 µM |  | 3.1 µM |  | 0.553 µM |  | 2.83 µM |  | 0.245 µM |  | 0.883 µM |  | 3.31 µM |  | 0.38 µM |  | 0.52 µM
